Data reported in patent US10189841B2, “Purinones as ubiquitin-specific protease 1 inhibitors” (Forma Therapeutics, Inc., priority 2015, dated 2019).

target: USP1 (construct USP1 (I-785, GG670, 671AA)/UAF1 (I-677)-Flag) (Homo sapiens (Human), UniProt O94782, G670A/G671A); experiment: Ubiquitin-Rhodamine 110 assay for USP1 activity; format: biochemical; details: USP1/UAF1 25 pM, Ub-Rh110 25 nM, 30 min preincubation
Method in brief: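 Two formats with the USP1/UAF1 complex and 25 nM ubiquitin-rhodamine 110 in pH 8.0 Tris buffer with calcium, glutathione and detergent. Single-point screening used 10 µM, 100 pM enzyme and 45 min. Inhibition was set against no-enzyme and DMSO wells.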

Chain of USP1 (construct USP1 (I-785, GG670, 671AA)/UAF1 (I-677)-Flag) (O94782 whole entry G670A/G671A): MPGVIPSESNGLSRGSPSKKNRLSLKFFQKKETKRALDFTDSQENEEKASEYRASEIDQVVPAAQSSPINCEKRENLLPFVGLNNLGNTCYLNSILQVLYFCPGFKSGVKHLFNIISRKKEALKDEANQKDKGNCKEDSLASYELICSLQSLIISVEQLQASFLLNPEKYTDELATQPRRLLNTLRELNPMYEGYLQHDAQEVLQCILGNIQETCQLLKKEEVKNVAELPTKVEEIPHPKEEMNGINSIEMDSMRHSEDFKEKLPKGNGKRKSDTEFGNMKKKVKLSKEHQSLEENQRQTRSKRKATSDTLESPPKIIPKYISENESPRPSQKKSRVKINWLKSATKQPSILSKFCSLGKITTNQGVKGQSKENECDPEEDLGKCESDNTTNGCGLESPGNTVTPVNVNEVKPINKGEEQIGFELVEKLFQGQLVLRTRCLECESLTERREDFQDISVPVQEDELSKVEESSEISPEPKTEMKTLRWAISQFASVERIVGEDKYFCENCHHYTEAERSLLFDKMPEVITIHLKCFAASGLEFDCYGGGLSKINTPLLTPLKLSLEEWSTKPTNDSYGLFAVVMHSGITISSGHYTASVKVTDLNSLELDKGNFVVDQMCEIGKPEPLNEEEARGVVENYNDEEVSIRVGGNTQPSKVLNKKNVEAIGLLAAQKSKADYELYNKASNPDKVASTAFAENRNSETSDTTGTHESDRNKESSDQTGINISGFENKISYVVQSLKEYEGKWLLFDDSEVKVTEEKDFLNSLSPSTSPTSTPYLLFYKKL
Chain of USP1 (construct USP1 (I-785, GG670, 671AA)/UAF1 (I-677)-Flag) (Q8TAF3 whole entry partner): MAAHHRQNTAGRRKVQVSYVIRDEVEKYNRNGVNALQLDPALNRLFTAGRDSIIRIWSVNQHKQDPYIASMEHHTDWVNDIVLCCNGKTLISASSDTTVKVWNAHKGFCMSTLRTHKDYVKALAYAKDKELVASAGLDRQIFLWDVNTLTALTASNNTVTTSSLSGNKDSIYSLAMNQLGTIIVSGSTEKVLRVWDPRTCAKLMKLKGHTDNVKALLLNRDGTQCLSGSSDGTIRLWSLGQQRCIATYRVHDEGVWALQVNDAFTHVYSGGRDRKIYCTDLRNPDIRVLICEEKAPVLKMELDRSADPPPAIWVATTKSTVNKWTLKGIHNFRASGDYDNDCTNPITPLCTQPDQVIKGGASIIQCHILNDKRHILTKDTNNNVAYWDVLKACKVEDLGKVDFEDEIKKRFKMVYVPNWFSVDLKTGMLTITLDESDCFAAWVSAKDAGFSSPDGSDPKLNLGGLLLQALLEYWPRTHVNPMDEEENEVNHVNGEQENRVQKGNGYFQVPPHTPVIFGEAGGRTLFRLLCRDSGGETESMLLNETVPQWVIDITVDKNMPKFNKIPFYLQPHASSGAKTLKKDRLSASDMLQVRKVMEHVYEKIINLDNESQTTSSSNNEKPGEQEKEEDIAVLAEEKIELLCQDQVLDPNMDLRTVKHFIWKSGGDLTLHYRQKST

Compound	IC50
CC(C)c1ncccc1-c1ncc2c(n1)n([C@H](C)c1ccc(-c3nc(C(F)(F)F)cn3C)cc1)c(=O)n2C [Compound I-115, (R)-2-(2-isopropylpyridin-3-yl)-7-methyl-9-(1-(4-(1-methyl-4-(trifluoromethyl)-1H-imidazol-2-yl)phenyl)ethyl)-7,9-dihydro-8H-purin-8-one]	< 50 nM
CC(C)c1ncccc1-c1ncc2c(n1)n([C@@H](C)c1ccc(-c3nc(C(F)(F)F)cn3C)cc1)c(=O)n2C [Compound I-116, (S)-2-(2-isopropylpyridin-3-yl)-7-methyl-9-(1-(4-(1-methyl-4-(trifluoromethyl)-1H-imidazol-2-yl)phenyl)ethyl)-7,9-dihydro-8H-purin-8-one]	< 50 nM
CC(C)c1ncccc1-c1ncc2c(n1)n(Cc1ccc(-n3nc(C(F)(F)F)cc3N3CCOCC3)cc1)c(=O)n2C [Compound I-117, 2-(2-isopropylpyridin-3-yl)-7-methyl-9-(4-(5-morpholino-3-(trifluoromethyl)-1H-pyrazol-1-yl)benzyl)-7,9-dihydro-8H-purin-8-one]	< 50 nM
COc1cc(C)n(-c2ccc(Cn3c(=O)n(C)c4cnc(-c5cccnc5C(C)C)nc43)cc2)n1 [Compound I-118, 2-(2-isopropylpyridin-3-yl)-9-(4-(3-methoxy-5-methyl-1H-pyrazol-1-yl)benzyl)-7-methyl-7,9-dihydro-8H-purin-8-one]	< 50 nM
CC(C)c1ncccc1-c1ncc2c(n1)n(Cc1ccc(-c3nc(C(F)(F)F)cn3C)cc1)c(=O)n2C1COC1 [Compound I-119, 2-(2-isopropylpyridin-3-yl)-9-(4-(1-methyl-4-(trifluoromethyl)-1H-imidazol-2-yl)benzyl)-7-(oxetan-3-yl)-7,9-dihydro-8H-purin-8-one]	50 to 200 nM
COCCn1c(=O)n(Cc2ccc(-c3nc(C(F)(F)F)cn3C)cc2)c2nc(-c3cccnc3C(C)C)ncc21 [Compound I-120, 2-(2-isopropylpyridin-3-yl)-7-(2-methoxyethyl)-9-(4-(1-methyl-4-(trifluoromethyl)-1H-imidazol-2-yl)benzyl)-7,9-dihydro-8H-purin-8-one]	< 50 nM
CC(C)c1ncccc1-c1ncc2c(n1)n(Cc1ccc(-c3nc(C(F)(F)F)cn3C)cc1)c(=O)n2C1CS(=O)(=O)C1 [Compound I-121, 7-(1,1-dioxidothietan-3-yl)-2-(2-isopropylpyridin-3-yl)-9-(4-(1-methyl-4-(trifluoromethyl)-1H-imidazol-2-yl)benzyl)-7,9-dihydro-8H-purin-8-one]	200 to 2000 nM
CC(C)c1ncccc1-c1ncc2c(n1)n(Cc1ccc(-c3nc(C(F)(F)F)cn3C)cc1)c(=O)n2C1CCOCC1 [Compound I-122, 2-(2-isopropylpyridin-3-yl)-9-(4-(1-methyl-4-(trifluoromethyl)-1H-imidazol-2-yl)benzyl)-7-(tetrahydro-2H-pyran-4-yl)-7,9-dihydro-8H-purin-8-one]	200 to 2000 nM
CC(C)c1ncccc1-c1ncc2c(n1)n(Cc1ccc(-c3nc(C(F)(F)F)cn3C)cc1)c(=O)n2CCO [Compound I-123, 7-(2-hydroxyethyl)-2-(2-isopropylpyridin-3-yl)-9-(4-(1-methyl-4-(trifluoromethyl)-1H-imidazol-2-yl)benzyl)-7,9-dihydro-8H-purin-8-one]	50 to 200 nM
CC(C)c1ncccc1-c1ncc2c(n1)n(Cc1ccc(-c3nc(C(F)(F)F)cn3C3COC3)cc1)c(=O)n2C [Compound I-124, 2-(2-isopropylpyridin-3-yl)-7-methyl-9-(4-(1-(oxetan-3-yl)-4-(trifluoromethyl)-1H-imidazol-2-yl)benzyl)-7,9-dihydro-8H-purin-8-one]	50 to 200 nM
CC(C)c1ncccc1-c1ncc2c(n1)n(Cc1cc(F)c(-c3nc(C(F)(F)F)cn3C)c(F)c1)c(=O)n2C [Compound I-125, 9-(3,5-difluoro-4-(1-methyl-4-(trifluoromethyl)-1H-imidazol-2-yl)benzyl)-2-(2-isopropylpyridin-3-yl)-7-methyl-7,9-dihydro-8H-purin-8-one]	50 to 200 nM
CC(C)c1ncccc1-c1ncc2c(n1)n(Cc1ccc(-c3nc(C(F)(F)F)cn3C)c(F)c1)c(=O)n2C [Compound I-126, 9-(3-fluoro-4-(1-methyl-4-(trifluoromethyl)-1H-imidazol-2-yl)benzyl)-2-(2-isopropylpyridin-3-yl)-7-methyl-7,9-dihydro-8H-purin-8-one]	< 50 nM
CC(C)c1ncccc1-c1ncc2c(n1)n(Cc1ccc(-c3nc(C(F)(F)F)cn3C)cc1F)c(=O)n2C [Compound I-127, 9-(2-fluoro-4-(1-methyl-4-(trifluoromethyl)-1H-imidazol-2-yl)benzyl)-2-(2-isopropylpyridin-3-yl)-7-methyl-7,9-dihydro-8H-purin-8-one]	50 to 200 nM
CC(C)c1ncccc1-c1ncc2c(n1)n(Cc1c(F)cc(-c3nc(C(F)(F)F)cn3C)cc1F)c(=O)n2C [Compound I-128, 9-(2,6-difluoro-4-(1-methyl-4-(trifluoromethyl)-1H-imidazol-2-yl)benzyl)-2-(2-isopropylpyridin-3-yl)-7-methyl-7,9-dihydro-8H-purin-8-one]	50 to 200 nM
[2H]C([2H])([2H])n1c(=O)n(Cc2ccc(-c3nc(C(F)(F)F)cn3C)cc2)c2nc(-c3cccnc3C(C)C)ncc21 [Compound I-129, 2-(2-isopropylpyridin-3-yl)-7-(methyl-d3)-9-(4-(1-methyl-4-(trifluoromethyl)-1H-imidazol-2-yl)benzyl)-7,9-dihydro-8H-purin-8-one]	< 50 nM
[2H]C([2H])([2H])n1cc(C(F)(F)F)nc1-c1ccc(Cn2c(=O)n(C([2H])([2H])[2H])c3cnc(-c4cccnc4C(C)C)nc32)cc1 [Compound I-130, 2-(2-isopropylpyridin-3-yl)-7-(methyl-d3)-9-(4-(1-(methyl-d3)-4-(trifluoromethyl)-1H-imidazol-2-yl)benzyl)-7,9-dihydro-8H-purin-8-one]	< 50 nM
[2H]C([2H])([2H])n1cc(C(F)(F)F)nc1-c1ccc(Cn2c(=O)n(C)c3cnc(-c4cccnc4C(C)C)nc32)cc1 [Compound I-131, 2-(2-isopropylpyridin-3-yl)-7-methyl-9-(4-(1-(methyl-d3)-4-(trifluoromethyl)-1H-imidazol-2-yl)benzyl)-7,9-dihydro-8H-purin-8-one]	< 50 nM
Cn1cc(C(F)(F)F)nc1-c1ccc(Cn2c(=O)n(C)c3cnc(-c4ccccc4C(C)(C)O)nc32)cc1 [Compound I-132, 2-(2-(2-hydroxypropan-2-yl)phenyl)-7-methyl-9-(4-(1-methyl-4-(trifluoromethyl)-1H-imidazol-2-yl)benzyl)-7,9-dihydro-8H-purin-8-one]	< 50 nM
Cn1cc(C(F)(F)F)nc1-c1ccc(Cn2c(=O)n(C)c3cnc(-c4cccnc4N4CCOCC4)nc32)cc1 [Compound I-133, 7-methyl-9-(4-(1-methyl-4-(trifluoromethyl)-1H-imidazol-2-yl)benzyl)-2-(2-morpholinopyridin-3-yl)-7,9-dihydro-8H-purin-8-one]	200 to 2000 nM
Cn1cc(C(F)(F)F)nc1-c1ccc(Cn2c(=O)n(C)c3cnc(-c4cccnc4N4CC(F)C4)nc32)cc1 [Compound I-134, 2-(2-(3-fluoroazetidin-1-yl)pyridin-3-yl)-7-methyl-9-(4-(1-methyl-4-(trifluoromethyl)-1H-imidazol-2-yl)benzyl)-7,9-dihydro-8H-purin-8-one]	50 to 200 nM
Cn1cc(C(F)(F)F)nc1-c1ccc(Cn2c(=O)n(C)c3cnc(-c4cccnc4N4CC(F)(F)C4)nc32)cc1 [Compound I-135, 2-(2-(3,3-difluoroazetidin-1-yl)pyridin-3-yl)-7-methyl-9-(4-(1-methyl-4-(trifluoromethyl)-1H-imidazol-2-yl)benzyl)-7,9-dihydro-8H-purin-8-one]	50 to 200 nM
Cn1cc(C(F)(F)F)nc1-c1ccc(Cn2c(=O)n(C)c3cnc(-c4cccnc4N4CC(C(F)(F)F)C4)nc32)cc1 [Compound I-136, 7-methyl-9-(4-(1-methyl-4-(trifluoromethyl)-1H-imidazol-2-yl)benzyl)-2-(2-(3-(trifluoromethyl)azetidin-1-yl)pyridin-3-yl)-7,9-dihydro-8H-purin-8-one]	50 to 200 nM
Cn1cc(C(F)(F)F)nc1-c1ccc(Cn2c(=O)n(C)c3cnc(-c4cccnc4OC4CC4)nc32)cc1 [Compound I-137, 2-(2-cyclopropoxypyridin-3-yl)-7-methyl-9-(4-(1-methyl-4-(trifluoromethyl)-1H-imidazol-2-yl)benzyl)-7,9-dihydro-8H-purin-8-one]	< 50 nM
CC(C)c1ccccc1-c1ncc2[nH]c(=O)n(Cc3ccc(-c4nc(C(F)(F)F)cn4C)cc3)c2n1 [Compound I-138, 2-(2-Isopropylphenyl)-9-(4-(1-methyl-4-(trifluoromethyl)-1H-imidazol-2-yl)benzyl)-7,9-dihydro-8H-purin-8-one]	< 50 nM
CC(C)c1ccccc1-c1ncc2[nH]c(=O)n(Cc3ccc(-n4ccnn4)cc3)c2n1 [Compound I-139, 9-(4-(1H-1,2,3-triazol-1-yl)benzyl)-2-(2-isopropylphenyl)-7,9-dihydro-8H-purin-8-one]	50 to 200 nM
CC(C)c1ccccc1-c1ncc2[nH]c(=O)n(Cc3ccc(-n4nccn4)cc3)c2n1 [Compound I-140, 9-(4-(2H-1,2,3-triazol-2-yl)benzyl)-2-(2-isopropylphenyl)-7,9-dihydro-8H-purin-8-one]	50 to 200 nM
CC(C)c1ccccc1-c1ncc2[nH]c(=O)n([C@@H](C)c3ccc(-n4nccn4)cc3)c2n1 [Compound I-141, (S)-9-(1-(4-(2H-1,2,3-triazol-2-yl)phenyl)ethyl)-2-(2-isopropylphenyl)-7,9-dihydro-8H-purin-8-one]	200 to 2000 nM
CC(C)c1ccccc1-c1ncc2[nH]c(=O)n([C@H](C)c3ccc(-n4nccn4)cc3)c2n1 [Compound I-142, (R)-9-(1-(4-(2H-1,2,3-triazol-2-yl)phenyl)ethyl)-2-(2-isopropylphenyl)-7,9-dihydro-8H-purin-8-one]	200 to 2000 nM
